We go through two compounds from paper PMC2941613 (Indian Journal of Pharmacology, 2010).

The nature of assay [1]: Plasma levels of active GLP-1 and insulin (unpublished observations). It counts as in vivo.
In another assay the test system is ob/ob mice. As to conditions: 10 mg/kg p.o. The procedure:
The DPP-IV inhibitors were administered to overnight fasted ob/ob mice for the above stated period, followed by oral glucose challenge (2 g/kg). Blood samples collected at 0, 15, 30, 60, and 120 min after glucose load were processed as described earlier and blood glucose concentrations measured using Biochemical AutoAnalyzer, Dimension AR (Dade Behring, USA). AUC0-120 min were calculated and the percent glucose excursion was estimated at different duration of treatment compared to vehicle.

Consider `N[C@@H](CC(=O)N1CCn2c(nnc2C(F)(F)F)C1)Cc1cc(F)c(F)cc1F` [sitagliptin], for which, in assay [1], the “Augmentation of plasma active GLP-1” value is “twofold” and the “Augmentation of plasma insulin” value was “twofold”. In addition, the “Glucose lowering (glucose excursion, AUC0-120 min vs vehicle) at 8 h” value in the assay with ob/ob mice (OGTT 2 g/kg 8 h after dosing) is ~ 35%. In addition, the “Reduction in AUCGlucose at 12 h” value in the assay with ob/ob mice (OGTT 2 g/kg 12 h after dosing) was -23%.

As to `N#C[C@@H]1CCCN1C(=O)CNC12CC3CC(CC(O)(C3)C1)C2` [vildagliptin], in assay [1], the “Augmentation of plasma active GLP-1” value is on record as “twofold” and the “Augmentation of plasma insulin” value is recorded as “twofold”.
